From patent US9339487B2, “Dry powder pharmaceutical composition for inhalation” (priority 2008, dated 2016)
Like-named read-outs stand apart in the source and are kept apart here.

Tests used:
[1] = system: influenza A or B virus infection; type: in vivo, human
[2] = system: influenza A or B virus infection; type: in vivo, human; settings: adult patients
[3] = type: in vivo, human
Method: The medicinal component was administered in a single inhaled dose of 5 mg, 10 mg, 20 mg, or 40 mg to healthy adult male subjects, and the pharmacokinetics of the medicinal component and the compound (III), which is an active metabolite of the medicinal component, were evaluated.
(§1) The administration was performed using the composition prepared according to Example 41.

[4] = system: influenza A or B virus infection; test: Test of comparison with oseltamivir phosphate for child patients; type: in vivo, human
clinical = type: in vivo, human; settings: for fe0-144 h [%]: cumulative urinary recovery until 144 hours; for fe0-144 h [%] / Cmax / half-life / AUC(0-inf): geometric mean; for Tmax / Cmax / half-life / AUC(0-inf): male, human, in vivo; for Tmax: inhaled or intranasal, single inhaled dose of medicinal component, plasma, median; for AUC(0-inf): read-out: AUC0-inf [ng/mL]
Method: The medicinal component was administered in a single inhaled dose of 80 mg or 120 mg to healthy adult male subjects, and the pharmacokinetics of the medicinal component were evaluated. In addition, the pharmacokinetics of the Compound (III), an active metabolite of the medicinal component, were also determined.
as §1

SMILES	Difference (95% confidence interval, hours) in median value from the oseltamivir phosphate group ([1]; human, in vivo)	duration of influenza illness compared with the oseltamivir phosphate group ([1]; human, in vivo)	upper limit of the 95% confidence interval for the difference between the median values ([2]; every dose group (20 mg, 40 mg), non-inferiority margin 18 hours)	time after administration at which plasma concentration was less than the quantification lower limit ([3]; each dose group (5, 10, 20, 40 mg), single inhaled dose)	dose proportionality of pharmacokinetic parameters (Cmax, AUC0-tz, AUC0-inf, Ae0-144h of medicinal component; Cmax, Ae0-144h of compound (III)) ([3]; single inhaled dose 5, 10, 20 or 40 mg)	time after administration at which almost not detected in urine ([3]; urinary excretion, single inhaled dose 5 to 40 mg)	duration of the illness compared with the oseltamivir phosphate group ([4]; child patients, each of the 20 mg group and the 40 mg group)	fe0-144 h [%] (clinical; 80 mg group)	fe0-144 h [%] (clinical; 120 mg group)	Tmax (clinical; 80 mg group)	Tmax (clinical; 120 mg group)	Cmax (clinical; 80 mg group)	half-life (clinical; 80 mg group)	AUC(0-inf) (clinical; 80 mg group)	Cmax (clinical; 120 mg group)	half-life (clinical; 120 mg group)	AUC(0-inf) (clinical; 120 mg group)	Median value (hours) of the duration of influenza illness ([1]; 75 mg twice daily for 5 days)	Median value (hours) of the duration of influenza illness ([2]; 75 mg twice daily for 5 days)	Median value (hours) of the duration of influenza illness ([4]; child patients (9 or less years old), 2 mg/kg twice daily for 5 days)
CCCCCCCC(=O)OC[C@@H](O)[C@@H](OC)[C@@H]1OC(C(=O)O)=C[C@H](NC(=N)N)[C@H]1NC(C)=O [Medicinal component, (2R,3R,4S)-3-acetamido-4-guanidino-2-[(1R,2R)-2-hydroxy-1-methoxy-3-(octanoyloxy)propyl]-3,4-dihydro-2H-pyran-6-carboxylic acid]	−1.4(−27.6 to 7.3) hours	almost equal	less than 18 hours	≥ 24 h	Dose proportionality was observed	≥ 24 h	shorter	3.5%	2.7%	30 min	30 min	335 ng/mL	340 min	1270 ng·h/mL	412 ng/mL	172 min	1560 ng·h/mL	–	–	–
CCOC(=O)C1=C[C@@H](OC(CC)CC)[C@H](NC(C)=O)[C@@H](N)C1 [Oseltamivir phosphate, oseltamivir phosphate, reference compound]	–	–	–	–	–	–	–	–	–	–	–	–	–	–	–	–	–	87.4 h	73.6 h	87.3 h
